From US7094869B2, “Low molecular weight peptidomimetic growth hormone secretagogues” (Genentech, Inc., priority 1994, dated 2006)
Where two headings read alike, the source gives them in different places. Non-standard residues stand in square brackets, D forms with d. Residues, ends and D or L forms follow the SMILES beside them. No end group written: not given here. d2Nal = N[C@H](Cc1ccc2ccccc2c1)C(=O)O; Inp = O=C(O)C1CCNCC1

Tests used:
[1] = Combination GHRP and IGF-1 treatment of obese Zucker Diabetic Fatty (ZDF) rats; assay type: in vivo, rat; details: for body weight gain: obese ZDF male rats, rhGH 500 μg/d
Procedure: Ten lean ZDF rats served as an additional control group.
This GHRP was given by sc. injection twice daily, each dose of 100 μl therefore containing 50 μg/injection or 100 μg/day.
Recombinant human IGF-1 (rhIGF-1) at 13.8 mg/ml in acetate buffer was loaded into osmotic minipumps (Alza, Palo Alto, model 2ML4, pump rate 2.29 μl/hr for 28 days, fill volume 2064 μl). Other pumps were filled with acetate buffer. […] The delivered dose of rhIGF-1 was therefore 758 μg/day. Recombinant human growth hormone (rhGH, Lot R9092AX, Genentech Inc.) was diluted in sterile water to 2.5 g/l and a 100 μl injection given twice daily (250 μg/injection, or 500 μg/day).
The next day the osmotic pumps were inserted into rats. […] All rats not receiving rhIGF-1 containing pumps were implanted with pumps delivering the acetate buffer excipient.
On day 24 blood was withdrawn after a 4 hour fast and 1.5 U/kg of regular insulin was injected i.p. and a second blood sample taken 30 minutes later. The rats were then sacrificed using carbon dioxide, bled from the heart, and organs taken. Serum glucose was measured by standard automated procedures.
Data are presented as mean±standard error (SE) of the mean with 8 rats per group.

rat pituitary cells [2] = target: T1, rat pituitary cells (Rattus norvegicus, UniProt O08725)
T1 sequence (O08725 whole entry): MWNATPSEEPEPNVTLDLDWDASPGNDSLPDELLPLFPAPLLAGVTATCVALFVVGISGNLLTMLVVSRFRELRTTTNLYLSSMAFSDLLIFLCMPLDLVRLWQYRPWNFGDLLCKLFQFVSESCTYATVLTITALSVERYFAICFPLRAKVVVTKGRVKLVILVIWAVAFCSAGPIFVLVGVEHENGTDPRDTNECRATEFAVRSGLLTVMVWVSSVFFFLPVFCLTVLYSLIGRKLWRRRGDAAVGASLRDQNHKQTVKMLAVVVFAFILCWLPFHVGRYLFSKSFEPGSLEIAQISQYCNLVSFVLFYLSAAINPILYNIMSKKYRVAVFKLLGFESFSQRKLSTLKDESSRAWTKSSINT
Outline: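 Primary rat anterior pituitary cells, cultured three days in DME low glucose/10% FBS, were washed, pre-incubated twice for 15 min, then challenged 15 min with test compounds (DMSO ≤0.1%) at 37 °C. Released GH was measured by two-site ELISA; EC50 came from 4-parameter fits, mean of three to four independent determinations.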

growth hormone secretion = test: GHRP induced growth hormone secretion, intravenous administration (Rat IV); assay type: in vivo; details: serum GH 10 min after injection; for RAT IV ED50: iv injection; for Rat IV ED50: Table II, iv tail vein injection, anesthetized weanling female rats
Outline: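 Female Sprague Dawley rats (24-30 days, 50-90 g) under intraperitoneal pentobarbitone received graded intravenous tail-vein peptide doses in pH 5.0 sodium acetate/mannitol buffer 20 min post-anaesthesia. Blood by cardiac puncture 10 min after dosing; serum GH measured by rat GH ELISA in duplicate.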

[3] = Combination GHRP and IGF-1 treatment of normal rats (7 days); assay type: in vivo, rat; details: for body weight gain (in words): 7 days, twice daily sc injections, normal adult female rats, GHRH 300, GHRPs 50, L-692,585 150 μg/dose
Procedure: The rats were weighed on the day of surgery and randomized into 12 groups of 5/group using a grouping program.
The GH secretagogues were given by sc. injection twice daily, each dose of 100 μl. […] Recombinant human IGF-1 (rhIGF-1) at 2.5 mg/ml in acetate buffer was loaded into osmotic minipumps (Alza, Palo Alto, model 2ML1, pump rate 10.16 μl/hr for 7 days, fill volume 2086 μl). Other pumps were filled with acetate buffer. […] The delivered dose of rhIGF-1 was therefore 610 μg/day.
The next day the osmotic pumps were inserted into rats. […] All rats not receiving rhIGF-1 containing pumps were implanted with pumps delivering the acetate buffer excipient. […] The treatment groups were;
The rats were sacrificed using carbon dioxide, bled from the heart and organs taken. Serum chemistries were measured by standard automated procedures.

rat pituitary cells [4] = target: T1, rat pituitary cells; test: Rat “pit” cell challenges: combinations with GHRP-6/GHRH, desensitization, somatostatin suppression, GHRP antagonist; assay type: cell-based
Procedure: Dispersion: Adult female Sprague-Dawley (160-180 g., Charles River) rats were group-caged in a 12:12 light:dark cycle with food and water available ad libitum. Pituitaries from ten rats were removed, the posterior pituitary discarded and the anterior pituitary placed in Hanks' Balanced Salt Solution (HBSS: without calcium chloride, w/o magnesium chloride, w/o magnesium sulfate; Gibco) containing 20 mM HEPES (Gibco) and 100 U/ml penicillin streptomycin (PS: JRH Biosciences). Under sterile conditions, pituitaries were rinsed twice then minced into small fragments with a razor blade. Fragments were resuspended in 5 ml of HBSS/HEPES containing 20 mg collagenase (Serva 17449) and 200 ml of 1 mg/ml DNase (Sigma) for a 40 min. incubation in a 37° C. gyrotory water bath shaker (New Brunswick Scientific Model G76; setting 10). After the incubation, fragments were triturated to yield small clumps and single cells. The cells were centrifuged 1000× g for 5 min, resuspended, counted and plated at a final cell concentration of 100,000 cells/ml. Incubation media was DME low glucose media w/NaHCO3 (Gibco) containing 20 mM hepes, 100 U/ml PS and 10% FBS (Hyclone A-111-L). Cells were plated at 0.5 ml per well in 48 well plates (Falcon) and incubated at 37° C. in 5% C02 for three days. […] The highest concentration of DMSO in media was 0.1%. Stock solutions (1 mM) of rat GHRH, somatostatin (Sigma) and GHRP antagonist HwkWfK were made fresh in media and diluted appropriately. The media used in all challenges and washing steps was DME low glucose with 20 mM Hepes, 100 U/ml PS, 10% FBS. Media was warmed to 37° C. and gassed by placing it into the incubator prior to challenge. On day three, the media was discarded and fresh media (approximately 1 ml) added for the first of three washes. After the last wash, the plate was placed back in the incubator for a 15 min pre-incubation. Then cells were washed 2× (with warmed and gassed media) and fresh 0.5 ml media were added for the second 15 min. pre-incubation. After the second pre-incubation cells were washed 2× as above and 0.5 ml of control and test solutions were added for a final 15 min incubation. After this incubation, the media were removed for subsequent GH ELISA. GH ELISA: A two-site ELISA was used to determine rat GH concentration in the media. Briefly, goat anti-rat GH antibody (lot#19164-20) was used to coat Nunc immunoplates overnight. After blocking and washing, standard (rat GH reference preparation: Parlow) and challenge media is diluted 1:20 prior to GH assay were added for a 1 hr room temperature incubation. STATISTICS: The mean for each group was determined and analyzed by one-way analysis of variance with a post-hoc Student-Newman-Keuls. Significance is defined as P<0.05. The EC50 was calculated using a 4-parameter curve-fit program (Kaleidagraph). Three to four independent EC50s were used to derive the mean and SEM.

rat pituitary cell = details: cited from earlier work
ACTH = ACTH release from pituitary cells (RIA); assay type: cell-based, rat
Procedure: Dispersion: Adult female Sprague-Dawley (160-180 g., Charles River) rats were group-caged in a 12:12 light:dark cycle with food and water available ad libitum. Pituitaries from ten rats were removed, the posterior pituitary discarded and the anterior pituitary placed in Hanks' Balanced Salt Solution (HBSS: without calcium chloride, w/o magnesium chloride, w/o magnesium sulfate; Gibco) containing 20 mM HEPES (Gibco) and 100 U/ml penicillin streptomycin (PS: JRH Biosciences). Under sterile conditions, pituitaries were rinsed twice then minced into small fragments with a razor blade. Fragments were resuspended in 5 ml of HBSS/HEPES containing 20 mg collagenase (Serva 17449) and […] of 1 mg/ml DNase (Sigma) for a 40 min. incubation in a 37° C. gyrotory water bath shaker (New Brunswick Scientific Model G76; setting 10). After the incubation, fragments were triturated to yield small clumps and single cells. The cells were centrifuged 1000× g for 5 min, resuspended, counted and plated at a final cell concentration of 100,000 cells/ml. Incubation media was DME low glucose media w/NaHCO3 (Gibco) containing 20 mM hepes, 100 U/ml PS and 10% FBS (Hyclone A-111-L). Cells were plated at 0.5 ml per well in 48 well plates (Falcon) and incubated at 37° C. in 5% C02 for three days. For challenges to determine release of other pituitary hormones cells were plated at 200,000 cells per ml with 2 ml per well of a Swell plate (Corning). Challenge: A (inip)bbFK-NH2 stock (or other GHRP) concentration of 1 mM was made in DMSO and diluted with warmed media approximately 30 min prior to use. The highest concentration of DMSO in media was 0.1%. […] STATISTICS: The mean for each group was determined and analyzed by one-way analysis of variance with a post-hoc Student-Newman-Keuls. […] The EC50 was calculated using a 4-parameter curve-fit program (Kaleidagraph). […] RIA of pituitary hormones: LH, FSH, TSH, and Prolactin were determined with commercially available kits from Amersham, and ACTH levels were determined by a RIA kit from ICN. […]

[5] = GHRP induced dose dependent weight gain in rats (sc minipump infusion, 14 days); assay type: in vivo, rat
Procedure: Rat GHRH (1-43) was dissolved in the same buffer at 25 g/l.
The next day these osmotic pumps were inserted into rats.
Serum chemistries were measured by standard automated procedures.

[6] = read-out: PIT Cell EC50, Table IV, formula III compounds, GH release, 15 min incubation
[7] = read-out: “Pit” Cell EC50, Table II, prior art compounds, GH release, 15 min incubation
[8] = high dose (inip) b b F K-NH2 100 μg/day, GHRH 600 μg/day, 14 d infusion
[9] = Day 2, GHRP 100 μg/d sc injection, rhIGF-1 758 μg/d pump

Molecule: NCCCC[C@H](NC(=O)[C@H](Cc1ccccc1)NC(=O)[C@@H](Cc1ccc2ccccc2c1)NC(=O)[C@@H](Cc1ccc2ccccc2c1)NC(=O)C1CCNCC1)C(N)=O (stereo in doubt) [(inip) b b F K amide, (inip)-DβNal-DβNal-Phe-Lys-amide]
- blood glucose ([1]; rat, in vivo): 542±37 mg %

Molecule: NC(=O)[C@H](Cc1ccccc1)NC(=O)[C@@H](Cc1ccc2ccccc2c1)NC(=O)[C@@H](Cc1ccc2ccccc2c1)NC(=O)C1CCNCC1 [(inip) b b F amide, (inip)-DβNal-DβNal-Phe-amide] (H-[Inp][d2Nal][d2Nal]F-NH2)
- EC50 (rat pituitary cells [2]; [6]): 0.28 nM
- RAT IV ED50 (growth hormone secretion; Table IV): 1.7 µg
- body weight gain (in words) [3]: significant body weight gain
- weight gain ([3]; in 7 days, 50 μg/dose twice daily sc): 36 ± 8 g

Molecule: CN(C(=O)[C@@H](Cc1ccc2ccccc2c1)NC(=O)C1CCNCC1)[C@H](Cc1ccc2ccccc2c1)C(=O)NCCCCN [(inip) b nmb bam, (inip)-DβNal-(N-Me-DβNal)-[N-(4-aminobutyl)] amide]
- EC50 (rat pituitary cells [2]; [6]): 0.3 nM
- RAT IV ED50 (growth hormone secretion; Table IV): 1.67 µg
- body weight gain (in words) [3]: significant body weight gain

Molecule: O=C(N[C@H](Cc1ccc2ccccc2c1)C(=O)N[C@@H](CO)Cc1c[nH]c2ccccc12)C1CCNCC1 [(inip) b wol, (inip)-DβNal-(D-Tryptophanol)]
- EC50 (rat pituitary cells [2]; read-out: EC50 of the representative GH dose response, single representative experiment, 15 min exposure): 3.9 nM
- EC50 (rat pituitary cells [2]; read-out: mean EC50, mean ± SE of independent EC50s): 10.6 ± 6.2 nM
- RAT IV ED50 (growth hormone secretion; Table V): 0.8 µg
- GH response compared with control (rat pituitary cells [4]; 100 nM): significantly greater than control
- GH release in combination with GHRH (rat pituitary cells [4]; GHRP 100 nM plus GHRH 10 or 100 nM): synergistic
- GH release in combination with GHRP-6 (rat pituitary cells [4]; both at 100 nM): not synergistic
- GH release in the presence of 20 nM somatostatin (rat pituitary cells [4]; coincubation with 20 nM somatostatin): totally suppressed
- GH release after sequential 15 min incubations with fresh compound (desensitization) (rat pituitary cells [4]; three sequential 15 min incubations, 100 nM): no significant release of GH

Molecule: CC(C)(N)CC(=O)N[C@@H]1CCc2ccccc2N(Cc2ccc(-c3ccccc3-c3nnn[nH]3)cc2)C1=O [L-692,429, reference compound]
- EC50 (rat pituitary cells [2]; [7]): 26.2 nM
- Rat IV ED50 (growth hormone secretion): 100 µg
- fold less potent than GHRP-6 (rat pituitary cell): about 6 fold

Molecule: C[C@@H](O)CNC(C)(C)CC(=O)N[C@@H]1CCc2ccccc2N(Cc2ccc(-c3ccccc3-c3nnn[nH]3)cc2)C1=O [L-692,585, reference compound]
- EC50 (rat pituitary cells [2]; [7]): 10.6 nM
- Rat IV ED50 (growth hormone secretion): 10 µg
- body weight gain (in words) [3]: no significant weight gain
- potency in the rat pituitary cell assay (rat pituitary cell): slightly greater than GHRP-6

Molecule: CRF: corticotrophin releasing factor (SEEPPISLDLTFHLLREVLEMARAEQLAQQAHSNRKLMEII; ends and bridges not checked; UniProt P06850 154-194, looked up) [reference compound]
- rise in ACTH levels (ACTH): 3 fold

Molecule: GHRH: Rat GHRH (1-43), growth hormone releasing hormone, positive control (HADAIFTSSYRRILGQLYARKLLHEIMNRQQGERNQEQRSRFN; Somatoliberin; UniProt P09916 31-73, looked up) [reference compound]
- GH response compared with control (rat pituitary cells [4]; 100 nM): mild GH response
- epiphyseal plate width ([5]; 14 d infusion): no statistically significant increase
- pituitary and kidney weight ([5]; 14 d infusion): not affected
- liver weight (in words) ([5]; GHRH 600 μg/day, 14 d infusion): significantly increased
- heart weight compared to excipient ([5]; high dose 100 μg/day, GHRH 600 μg/day): increased
- spleen weight [5, 8]: 624 ± 23 mg
- thymus weight [5, 8]: 575 ± 39 mg
- body weight gain compared to excipient ([5]; sc minipump 14 days, (inip) b b F K-NH2 4, 20, 100 μg/d, GHRH 600 μg/d, 90 day old female rats): significant body weight and organ weight gain
- body weight gain (in words) [3]: significant body weight gain

Molecule: rhGH: Recombinant human growth hormone (Lot R9092AX, Genentech Inc.)
- body weight gain [1, 9]: 13.6 ± 2.5 g
- blood glucose ([1]; rat, in vivo): 725±30 mg %
- fasting blood glucose ([1]; rat, in vivo): 504±38 mg %
- serum insulin ([1]; rat, in vivo): 48 ± 6 ng/mL

Molecule: rhIGF-1: Recombinant human insulin-like growth factor-1
- body weight gain [1, 9]: 21.5 ± 0.7 g
- body weight gain ([1]; day 24, GHRP 100 μg/d, rhIGF-1 758 μg/d): 232 ± 2 g
- blood glucose ([1]; rat, in vivo): 1774 mg %
- serum insulin ([1]; rat, in vivo): 8 ± 1 ng/mL
